The subject of test [1] is HCV RNA replicon in cell line ET (luc-ubi-neo/ET), human Huh7 hepatoma. Briefly: Method A: HCV RNA replicon antiviral assay (luciferase, ET cell line). The format is cell-based, Hepatitis C virus. The following applies: Hepatitis C virus, Huh-7, assay described in Example 22. The method, boiled down: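 Six 3-fold dilutions of each drug were tested on subconfluent luc-ubi-neo/ET Huh7 replicon cells (5×10^3/well) for 72 hr at 37 °C. EC50 and EC90 came from luciferase read-out, IC50 from CytoTox-1 cell number, and […]; interferon alpha-2b was run each time as control.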

Test [2] deals with T1, wild type HCV NS3/4A 1b protease enzyme (Hepatitis C virus genotype 1b, UniProt P26663).
T1 construct: 10× stocks of NS3/4A protease enzyme from Bioenza (Mountain View, Calif.); purchased Bioenza (Mountain View, Calif.)
Nature of the test: HCV Protease FRET Assay (IC50_APP), wild type. The format is biochemical.

The target in test [3] is T2, A156T mutant of the HCV NS3/4A 1b protease enzyme (Hepatitis C virus genotype 1b, UniProt P26663, A1182T).
T2 construct: 10× stocks of NS3/4A protease enzyme from Bioenza (Mountain View, Calif.); purchased Bioenza (Mountain View, Calif.)
Briefly: HCV Protease FRET Assay (IC50_APP), A156T mutant. The format is biochemical. The following applies: apparent IC50, A156T mutant; read-out: IC50_APP, HCV A156T.

The target of test [4] is T3, D168A mutant of the HCV NS3/4A 1b protease enzyme (Hepatitis C virus genotype 1b, UniProt P26663, D1194A).
T3 construct: 10× stocks of NS3/4A protease enzyme from Bioenza (Mountain View, Calif.); purchased Bioenza (Mountain View, Calif.)
Nature of the test: HCV Protease FRET Assay (IC50_APP), D168A mutant. The conditions noted are these: apparent IC50, D168A mutant; read-out: IC50_APP, HCV D168A. The test is classed as biochemical.

The target of test [5] is T4, HCV NS3/4A wild type (genotype 1b) (Hepatitis C virus genotype 1b, UniProt P26663).
T4 construct: mass spectroscopic analysis of HCV NS3/4A wild-type protease domain; purchased Bioenza Calif
Briefly: Mass spectrometric analysis (MALDI-TOF) of covalent modification, HCV wild type. The test is classed as binding. The conditions noted are these: 10-fold excess of compound to protein, 1 hr. Here is the method: Mass spectrometric analysis of HCV wild type or HCV variant C159S in the presence of test compound was performed. 100 pmols of HCV wild type (Bioenza Calif.) was incubated with compound for 1 hr and 3 hrs at 10-fold access of […] to protein. 1 ul aliquots of the samples (total volume of 4.24 ul) were diluted with 10 ul of 0.1% TFA prior to micro C4 ZipTipping directly onto the MALDI target using Sinapinic acid as the desorption matrix (10 mg/ml in 01% TFA:Acetonitrile 50:50). Analyses were performed on a Shimadzu Biotech Axima TOF^2 (Shimadzu Instruments) matrix-assisted-laser desorption/ionization Time-of-Flight (MALDI-TOF) mass spectrometer. The same procedure was carried out on 100 pmols of HCV C159S mutant of HCV protease for 3 hrs at 10-fold excess of (I-3) to protein.
As depicted in FIGS. 2, 3, 4, and 5, mass spectrometric analysis of HCV wild type or HCV mutants in the presence of test compound (I-3) was performed. […] 1 ul aliquots of the samples were diluted with 10 ul of 0.1% TFA prior to micro C4 ZipTipping directly onto the MALDI target using Sinapinic acid as the desorption matrix (10 mg/ml in 0.1% TFA:Acetonitrile 50:50).
Mass spectrometric analysis of HCV wild type (genotype 1b) in the presence of test compounds I-73 and I-75 was performed using the following protocol: HCV NS3/4A wild type (wt) was incubated for 1 hr at a 10× fold access of test compound to protein. 2 ul aliquots of the samples were diluted with 10 ul of 0.1% TFA prior to micro C4 ZipTipping directly onto the MALDI target using Sinapinic acid as the desorption matrix (10 mg/ml in 0.1% TFA:Acetonitrile 50:50). For intact protein mass measurement the instrument was set in Linear mode using a pulsed extraction setting of 24,500 and apomyoglobin as the standard to calibrate the instrument.
Mass spectrometric analysis of HCV NS3/4A genotypes 1a, 1b, 2a, and 3a in the presence of test compound I-96 was performed using the following protocol: HCV NS3/4A was incubated for 3 hr at a 10× fold access of test compound to protein. […]

Test [6] deals with T5, C159S mutant of the HCV NS3/4A 1b protease enzyme (Hepatitis C virus genotype 1b, UniProt P26663, C1185S).
T5 construct: 10× stocks of NS3/4A protease enzyme from Bioenza (Mountain View, Calif.); purchased Bioenza (Mountain View, Calif.)
Briefly: HCV Protease FRET Assay (IC50_APP), C159S mutant. The format is biochemical. The conditions noted are these: apparent IC50, C159S mutant. How it is done: HCV Protease FRET Assay for WT and Mutated NS3/4A 1b Enzymes (IC50—APP).
The following protocol was used to generate “apparent” IC50 (IC50—APP) values as depicted in Table 6, below. […] 5 μL of each enzyme were added to Corning (#3575) 384-well, black, microtiter plates (Corning, N.Y.) after spotting a 0.5 μL volume of 50% DMSO and serially diluted compounds prepared in 50% DMSO. Protease reactions were immediately started after enzyme addition with the addition of 45 μL of the FRET substrate and monitored for 60-90 minutes at λex485/λem520 in a Synergy^4 plate reader from BioTek (Winooski, Vt.). At the conclusion of each assay, progress curves from each well were examined for linear reaction kinetics and fit statistics (R^2, 95% confidence intervals, absolute sum of squares).
The compound numbers correspond to the compound numbers in Table 3. […] ;

Test [7] has as its target T6, R155K mutant of the HCV NS3/4A 1b protease enzyme (Hepatitis C virus genotype 1b, UniProt P26663, R1181K).
T6 construct: 10× stocks of NS3/4A protease enzyme from Bioenza (Mountain View, Calif.); purchased Bioenza (Mountain View, Calif.)
Briefly: HCV Protease FRET Assay (IC50_APP), R155K mutant. The conditions noted are these: apparent IC50, R155K mutant; read-out: IC50_APP, HCV R155K. The test is classed as biochemical.

For test [8], the system named is HCV RNA replicon in cell line ET (luc-ubi-neo/ET), human Huh7 hepatoma. Nature of the test: Luciferase Assay (Example 35), replicon-derived luciferase activity. The test is classed as cell-based. The conditions noted are these: Hepatitis C virus, Huh-7; assay described in Example 35. How it is done: The compounds were assayed to evaluate the antiviral activity and cytotoxicity of compounds using replicon-derived luciferase activity. This assay used the cell line ET (luc-ubi-neo/ET), which is a human Huh7 hepatoma cell line that contains an HCV RNA replicon with a stable luciferase (Luc) reporter and cell culture-adaptive mutations. The ET cell line was grown in a 5% CO2 incubator at 37° C. in Dulbecco's modified essential media (DMEM) supplemented with 2 mM L-glutamine, nonessential amino acids, 100 U of penicillin/ml, 100 μg of streptomycin/mL, and 10% fetal bovine serum. G418 (Geneticin; Invitrogen) was added at a final concentration of 400 ug//mL.
All cell culture reagents were obtained from Invitrogen (Carlsbad). Cells were trypsinized (1% trypsin:EDTA) and plated out at 5×10^3 cells/well in white 96-well assay plates (Costar) dedicated to cell number (cytotoxicity) or antiviral activity assessments. Test compounds were added at six 3-fold concentrations each and the assay was run in DMEM, 5% FBS, 1% pen-strep, 1% glutamine, 1% non essential amino acid. Human interferon alpha-2b (PBL Biolabs, New Brunswick, N.J.) was included in each run as a positive control compound. Cells were processed 72 hr post test compound addition when the cells were still subconfluent. Antiviral activity was measured by analyzing replicon-derived luciferase activity using the Steady-Glo Luciferase Assay System (Promega, Madison, Wis.) according to manufacturer's instruction. The number of cells in each well was determined by Cell Titer Blue Assay (Promega). Compound profile was derived by calculating applicable EC50 (effective concentration inhibiting virus replication by 50%), EC90 (effective concentration inhibiting virus replication by 90%), IC50 (concentration decreasing cell viability by 50%) and SI50 (selective index: […]) values.
On the technique in general: A replicon is a self-replicating genome or part of one, used to study replication in cells.

Setting [9] is: read-out: IC50_APP, WT, apparent IC50, wild type NS3/4A 1b.

Read-outs that look alike come from different tables or passages of the source. Bounds are passed on as bounds.

Consider `C=C[C@@H]1C[C@]1(NC(=O)[C@@H]1C[C@@H](Oc2cc(-c3ccccc3)nc3cc(OC)ccc23)CN1C(=O)[C@@H](NC(=O)OC(C)(C)C)[C@@H](C)OC(=O)/C=C/C)C(=O)NS(=O)(=O)C1CC1` [Compound I-50, (E)-((2R,3S)-3-(tert-butoxycarbonylamino)-4-((2S,4R)-2-((1R,2S)-1-(cyclopropylsulfonylcarbamoyl)-2-vinylcyclopropylcarbamoyl)-4-(7-methoxy-2-phenylquinolin-4-yloxy)pyrrolidin-1-yl)-4-oxobutan-2-yl)but-2-enoate], for which the IC90 in test [1] (IC90) was < 10 nM. In addition, the IC50 was < 10 nM in test [1] (read-out: Replicon (IC50)), < 10 nM in test [2], 100 to 1000 nM in test [3] and 100 to 1000 nM in test [4]. In test [5], the “Covalent modification of HCV wild type by mass spectrometry” value is “measurable covalent modification”.
As to `C=CC(=O)N[C@H](CC(C)C)C(=O)N1C[C@H](Oc2nccc3cc(OC)ccc23)C[C@H]1C(=O)N[C@]1(C(=O)NS(=O)(=O)C2CC2)C[C@H]1C=C` [Compound I-105], the IC50 in test [2] (setting [9]) was < 10 nM; in test [6], 100 to 1000 nM; in test [3], < 10 nM; in test [4], 100 to 1000 nM; in test [7], 10 to 100 nM. This molecule also had an EC50 in test [8] of 10 to 100 nM.
`C=CC(=O)N[C@H](Cc1ccccc1)C(=O)N1C[C@H](Oc2nccc3cc(OC)ccc23)C[C@H]1C(=O)N[C@]1(C(=O)NS(=O)(=O)C2CC2)C[C@H]1C=C` [Compound I-106]: the IC50 in test [2] (setting [9]) was < 10 nM; in test [6], 100 to 1000 nM; in test [3], < 10 nM; in test [4], 100 to 1000 nM; in test [7], 10 to 100 nM. Further, the concentration for a half-maximal effect (EC50) in test [8] is 10 to 100 nM.
In the case of `C=CC1CC1(NC(=O)C1CC(n2nnc(-c3ccc(OC)cc3)n2)CN1C(=O)C(CCC(=O)C=C(C)C)NC(=O)OC(C)(C)C)C(=O)NS(=O)(=O)C1CC1` (centres unmarked) [Compound I-107], the IC50 is < 10 nM in test [2] (setting [9]), 10 to 100 nM in test [6], 1000 to 10000 nM in test [4] and 1000 to 10000 nM in test [7]. The molecule further displayed an EC50 in test [8] of 100 to 1000 nM.
Consider `C=CC(=O)NCC(NC(=O)OC(C)(C)C)C(=O)N1CC(n2nnc(-c3ccc(OC)cc3)n2)CC1C(=O)NC1(C(=O)NS(=O)(=O)C2CC2)CC1C=C` (centres unmarked) [Compound I-108], for which the IC50 in test [2] (setting [9]) was < 10 nM; in test [6], 100 to 1000 nM; in test [4], 1000 to 10000 nM; in test [7], 1000 to 10000 nM. Besides, in test [8], the EC50 was in the range of 100 to 1000 nM.
For `C=CC(=O)NC[C@H](NC(=O)OC(C)(C)C)C(=O)N1C[C@H](Oc2nc3ccccc3nc2-c2cccs2)C[C@H]1C(=O)N[C@]1(C(=O)NS(=O)(=O)C2CC2)C[C@H]1C=C` [Compound I-109], the IC50 in test [2] (setting [9]) is < 10 nM; in test [6] it was 100 to 1000 nM; in test [4], 1000 to 10000 nM; in test [7] it was 100 to 1000 nM. In addition, the EC50 in test [8] is 100 to 1000 nM.
`C=C[C@@H]1C[C@]1(NC(=O)[C@@H]1C[C@@H](Oc2nc3ccccc3nc2-c2cccs2)CN1C(=O)[C@H](CCC(=O)C=C(C)C)NC(=O)OC(C)(C)C)C(=O)NS(=O)(=O)C1CC1` [Compound I-110]: the IC50 in test [2] (setting [9]) was < 10 nM; in test [6], 10 to 100 nM; in test [4], 1000 to 10000 nM; in test [7], 100 to 1000 nM. Also, the EC50 in test [8] was 10 to 100 nM.

Usually IC90 stands for the concentration at which the effect reaches the 90% level. As usually defined, the EC50 is the concentration at which the effect is half-maximal. A lower EC50 goes with greater potency.

These data come from US8309685B2 (Celgene Avilomics Research, Inc., priority 2007, dated 2012).
